How the values were obtained:
bedstraw = experiment: Test B pre/postemergence bedstraw; format: in vivo, Galium aparine; conditions: Preemergence
Procedure, shortened: (§1)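 Test chemicals in a non-phytotoxic solvent mixture with surfactant were sprayed preemergence onto planted seeds and postemergence onto plants 2 to 18 cm tall (1- to 4-leaf stage). After twelve to sixteen days in a greenhouse, injury was visually rated against untreated controls from 0 (no effect) to 10 (complete control).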

blackgrass = experiment: Test B pre/postemergence blackgrass; format: in vivo, Alopecurus myosuroides
Procedure, shortened: as §1

surinam grass = experiment: Test B pre/postemergence surinam grass; format: in vivo, Brachiaria decumbens
Procedure, shortened: as §1

cocklebur = experiment: Test B pre/postemergence cocklebur; format: in vivo, Xanthium strumarium
Procedure, shortened: as §1

corn = experiment: Test B pre/postemergence corn; format: in vivo, Zea mays
Procedure, shortened: as §1

crabgrass = experiment: Test B pre/postemergence crabgrass; format: in vivo, Digitaria sanguinalis
Procedure, shortened: as §1

giant foxtail = experiment: Test B pre/postemergence giant foxtail; format: in vivo, Setaria faberii
Procedure, shortened: as §1

morningglory = experiment: Test B pre/postemergence morningglory; format: in vivo, Ipomoea hederacea
Procedure, shortened: as §1

pigweed = experiment: Test B pre/postemergence pigweed; format: in vivo, Amaranthus retroflexus
Procedure, shortened: as §1

rape = experiment: Test B pre/postemergence rape; format: in vivo, Brassica napus
Procedure, shortened: as §1

soybean = experiment: Test B pre/postemergence soybean; format: in vivo, Glycine max
Procedure, shortened: as §1

sugar beet = experiment: Test B pre/postemergence sugar beet; format: in vivo, Beta vulgaris
Procedure, shortened: as §1

velvetleaf = experiment: Test B pre/postemergence velvetleaf; format: in vivo, Abutilon theophrasti
Procedure, shortened: as §1

wheat = experiment: Test B pre/postemergence wheat; format: in vivo, Triticum aestivum
Procedure, shortened: as §1

wild oat = experiment: Test B pre/postemergence wild oat; format: in vivo, Avena fatua
Procedure, shortened: as §1

purple nutsedge = experiment: Test B pre/postemergence purple nutsedge; format: in vivo, Cyperus rotundus
Procedure, shortened: as §1

[1] = Postemergence, Rate 62 g/ha, scale of 0 to 10, 0 is no effect, 10 is complete control
[2] = Postemergence, Rate 125 g/ha, scale 0 to 10, 0 is no effect, 10 is complete control
[3] = Postemergence, Rate 500 g/ha, scale 0 to 10, 0 is no effect, 10 is complete control
[4] = Preemergence, Rate 62 g/ha, scale 0 to 10 (0 no effect, 10 complete control)
[5] = Preemergence, Rate 125 g/ha, scale 0 to 10, 0 is no effect, 10 is complete control
[6] = Rate 250 g/ha, Postemergence, scale of 0 to 10 where 0 is no effect and 10 is complete control
[7] = Preemergence, Rate 500 g/ha, scale of 0 to 10 where 0 is no effect and 10 is complete control

`CCOCn1c(=O)on(C(=O)N(c2ccc(Cl)cc2)C(C)C)c1=O` [Compound 534] was tested, and the “Bedstraw plant response rating” value (bedstraw; Rate 62 g/ha, scale 0 to 10 (0 no effect, 10 complete control)) was 0, the “Bedstraw plant response rating” value (bedstraw; Rate 125 g/ha, scale 0 to 10, 0 is no effect, 10 is complete control) was 0 and the “Bedstraw plant response rating (0 to 10 scale)” value (bedstraw; Rate 250 g/ha) was 0. The “Blackgrass plant response rating” value (blackgrass; [1]) was 0, the “Blackgrass plant response rating” value (blackgrass; [2]) was 2 and the “Plant response rating, Blackgrass” value (blackgrass; [3]) was 7. The “Blackgrass plant response rating” value (blackgrass; [4]) was 8, the “Blackgrass plant response rating” value (blackgrass; [5]) was 9 and the “Blackgrass plant response rating (0 to 10 scale)” value (blackgrass; Preemergence, Rate 250 g/ha) was 9. The “Plant response rating, Blackgrass” value (blackgrass; [6]) was 7, the “B. signalgrass plant response rating” value (surinam grass; [1]) was 0 and the “B. signalgrass plant response rating” value (surinam grass; [2]) was 0. For the same molecule, the “Plant response rating, B. signalgrass” value (surinam grass; [3]) was 6, the “B. signalgrass plant response rating” value (surinam grass; [4]) was 9 and the “B. signalgrass plant response rating” value (surinam grass; [5]) was 9. The “B. signalgrass plant response rating (0 to 10 scale, 0 is no effect, 10 is complete control)” value (surinam grass; Preemergence, Rate 250 g/ha) was 9, the “Plant response rating, B. signalgrass” value (surinam grass; [6]) was 0 and the “Cocklebur plant response rating” value (cocklebur; [1]) was 0. The “Cocklebur plant response rating” value (cocklebur; [2]) was 0, the “Plant response rating, Cocklebur” value (cocklebur; [3]) was 0 and the “Cocklebur plant response rating” value (cocklebur; [4]) was 0. The “Cocklebur plant response rating” value (cocklebur; [5]) was 0, the “Cocklebur plant response rating (0 to 10 scale)” value (cocklebur; Preemergence, Rate 250 g/ha) was 0 and the “Cocklebur plant response rating” value (cocklebur; [7]) was 0. The “Plant response rating, Cocklebur” value (cocklebur; [6]) was 0, the “Corn plant response rating” value (corn; [1]) was 0 and the “Corn plant response rating” value (corn; [2]) was 0. The “Plant response rating, Corn” value (corn; [3]) was 0, the “Corn plant response rating” value (corn; [4]) was 0 and the “Corn plant response rating” value (corn; [5]) was 0. For the same molecule, the “Corn plant response rating (0 to 10 scale)” value (corn; Preemergence, Rate 250 g/ha) was 3, the “Corn plant response rating” value (corn; [7]) was 3 and the “Plant response rating, Corn” value (corn; [6]) was 0. The “Crabgrass plant response rating” value (crabgrass; [2]) was 5, the “Plant response rating, Crabgrass” value (crabgrass; [3]) was 8 and the “Crabgrass plant response rating” value (crabgrass; [4]) was 9. The “Crabgrass plant response rating” value (crabgrass; [5]) was 10, the “Crabgrass plant response rating (0 to 10 scale)” value (crabgrass; Preemergence, Rate 250 g/ha) was 10 and the “Crabgrass plant response rating” value (crabgrass; [7]) was 10. The “Plant response rating, Crabgrass” value (crabgrass; [6]) was 4, the “Giant foxtail plant response rating” value (giant foxtail; [2]) was 3 and the “Plant response rating, Giant foxtail” value (giant foxtail; [3]) was 8. The “Giant foxtail plant response rating” value (giant foxtail; [4]) was 9, the “Giant foxtail plant response rating” value (giant foxtail; [5]) was 9 and the “Giant foxtail plant response rating (0 to 10 scale)” value (giant foxtail; Preemergence, Rate 250 g/ha) was 10. The “Giant foxtail plant response rating” value (giant foxtail; [7]) was 10, the “Plant response rating, Giant foxtail” value (giant foxtail; [6]) was 4 and the “Morningglory plant response rating” value (morningglory; [1]) was 2. The “Morningglory plant response rating” value (morningglory; [2]) was 2, the “Plant response rating, Morningglory” value (morningglory; [3]) was 3 and the “Morningglory plant response rating” value (morningglory; [4]) was 0. For the same molecule, the “Morningglory plant response rating” value (morningglory; [5]) was 0, the “Morningglory plant response rating (0 to 10 scale)” value (morningglory; Preemergence, Rate 250 g/ha) was 2 and the “Morningglory plant response rating” value (morningglory; [7]) was 0. For the same molecule, the “Plant response rating, Morningglory” value (morningglory; [6]) was 2, the “Redroot pigweed plant response rating” value (pigweed; [1]) was 0 and the “Redroot pigweed plant response rating” value (pigweed; [2]) was 3. For the same molecule, the “Plant response rating, Redroot pigweed” value (pigweed; [3]) was 7, the “Redroot pigweed plant response rating” value (pigweed; [4]) was 0 and the “Redroot pigweed plant response rating” value (pigweed; [5]) was 0. For the same molecule, the “Redroot pigweed plant response rating (0 to 10 scale)” value (pigweed; Preemergence, Rate 250 g/ha) was 0, the “Plant response rating, Redroot pigweed” value (pigweed; [6]) was 3 and the “Rape plant response rating” value (rape; [1]) was 0. The “Rape plant response rating” value (rape; [2]) was 0, the “Plant response rating, Rape” value (rape; [3]) was 7 and the “Rape plant response rating” value (rape; [4]) was 2. The “Rape plant response rating” value (rape; [5]) was 6, the “Rape plant response rating (0 to 10 scale)” value (rape; Preemergence, Rate 250 g/ha) was 6 and the “Plant response rating, Rape” value (rape; [6]) was 0. The “Soybean plant response rating” value (soybean; [2]) was 4, the “Plant response rating, Soybean” value (soybean; [3]) was 7 and the “Soybean plant response rating” value (soybean; [4]) was 0. The “Soybean plant response rating” value (soybean; [5]) was 0, the “Soybean plant response rating (0 to 10 scale)” value (soybean; Preemergence, Rate 250 g/ha) was 0 and the “Plant response rating, Soybean” value (soybean; [6]) was 6. The “Sugarbeets plant response rating” value (sugar beet; [1]) was 0, the “Sugarbeets plant response rating” value (sugar beet; [2]) was 0 and the “Plant response rating, Sugarbeets” value (sugar beet; [3]) was 2. The “Sugarbeets plant response rating” value (sugar beet; [4]) was 3, the “Sugarbeets plant response rating” value (sugar beet; [5]) was 4 and the “Sugarbeets plant response rating (0 to 10 scale)” value (sugar beet; Preemergence, Rate 250 g/ha) was 6. The “Plant response rating, Sugarbeets” value (sugar beet; [6]) was 3, the “Velvetleaf plant response rating” value (velvetleaf; [1]) was 0 and the “Velvetleaf plant response rating” value (velvetleaf; [2]) was 2. The “Plant response rating, Velvetleaf” value (velvetleaf; [3]) was 2, the “Velvetleaf plant response rating” value (velvetleaf; [4]) was 0 and the “Velvetleaf plant response rating” value (velvetleaf; [5]) was 2. The “Velvetleaf plant response rating (0 to 10 scale)” value (velvetleaf; Preemergence, Rate 250 g/ha) was 2, the “Velvetleaf plant response rating” value (velvetleaf; [7]) was 3 and the “Plant response rating, Velvetleaf” value (velvetleaf; [6]) was 2. The “Wheat plant response rating” value (wheat; [1]) was 0, the “Wheat plant response rating” value (wheat; [2]) was 0 and the “Plant response rating, Wheat” value (wheat; [3]) was 5. For the same molecule, the “Wheat plant response rating” value (wheat; [4]) was 0, the “Wheat plant response rating” value (wheat; [5]) was 0 and the “Wheat plant response rating (0 to 10 scale)” value (wheat; Preemergence, Rate 250 g/ha) was 3. For the same molecule, the “Plant response rating, Wheat” value (wheat; [6]) was 3, the “Wild oats plant response rating” value (wild oat; [1]) was 0 and the “Wild oats plant response rating” value (wild oat; [2]) was 0. The “Plant response rating, Wild oats” value (wild oat; [3]) was 3, the “Wild oats plant response rating” value (wild oat; [4]) was 3 and the “Wild oats plant response rating” value (wild oat; [5]) was 8. For the same molecule, the “Wild oats plant response rating (0 to 10 scale)” value (wild oat; Preemergence, Rate 250 g/ha) was 9, the “Plant response rating, Wild oats” value (wild oat; [6]) was 0 and the “Nutsedge plant response rating” value (purple nutsedge; [1]) was 0. The “Nutsedge plant response rating” value (purple nutsedge; [2]) was 2, the “Plant response rating, Nutsedge” value (purple nutsedge; [3]) was 2 and the “Nutsedge plant response rating” value (purple nutsedge; [4]) was 0. The “Nutsedge plant response rating” value (purple nutsedge; [5]) was 0 and the “Plant response rating, Nutsedge” value (purple nutsedge; [6]) was 2.
